Legend:
obese (DIO) mice = details: injected into obese (DIO) mice; cited from earlier work
male C57BL/6J mice = test: Free-choice 10% ethanol vs water intake, Example 2; assay type: in vivo
Procedure: To test this hypothesis, 5 groups of 5 male C57BL/6J mice (25 total) were housed for 40 days in plastic cages with 2 water bottles each: one containing water and the other 10% ethanol in water (10% ethanol). Fluids were available “free choice”, and intake from each bottle was recorded daily.
Over the 1st week, 10% ethanol and water were consumed at a mean ratio of 0.80±0.32:1.0. Intake of 10% ethanol then increased, plateauing at a 10% ethanol:water ratio of 2.0±0.17:1.0 by Days 22-30. This was assigned a value of 100% as baseline for the subsequent studies. Starting on Day 31, 15 mice were injected with Spexin in 1×PBS 25 μg/kg in PBS i.p. daily for 3 days. Mice were administered the 14 amino acid Spexin peptide with carboxy terminal amidation: Asn-Trp-Thr-Pro-Gln-Ala-Met-Leu-Tyr-Leu-Lys-Gly-Ala-Gln-NH2 (SEQ ID NO: 4; available from Phoenix Pharmaceuticals, Catalog No. 023-81). The other 10 mice were injected with 1×PBS (vehicle) alone.

C57BL/6J mice = test: Free-choice 10% ethanol/water drinking, Example 1; assay type: in vivo
Source text: Animals (C57BL/6J mice) were offered two options for drinking water, one bottle with pure water, and the other bottle containing a 10% ethanol/water mix, both of which were available “free choice” from Day 1 of the experiment. […] In this experiment, as the mice became accustomed to the 10% ethanol mix offered, they began to drink more and more of the ethanol mix, so that when their liquid consumption was plotted as a ratio of 10% ethanol/water, the ratio quickly became greater than 1 (more 10% ethanol than pure water). The mice were allowed to establish a baseline consumption pattern, and after 30 Days, 5 cages consistently consumed more of the ethanol mix than pure water.
Beginning on Day 33, three cages were treated with Spexin at 25 micrograms/kg/day in 1×PBS; via IP injection (cages 1, 4, and 10). Mice were administered the 14 amino acid Spexin peptide with carboxy terminal amidation: Asn-Trp-Thr-Pro-Gln-Ala-Met-Leu-Tyr-Leu-Lys-Gly-Ala-Gln-NH2 (SEQ ID NO: 4; available from Phoenix Pharmaceuticals, Catalog No. 023-81). The other two cages (2 and 7) were injected with an equal volume of vehicle according to the same schedule. Animals were injected for 5 days (Days 33 through 37), then given two days off (Days 38 and 39), then injected again with Spexin for two more days (days 40 and 41). […]

rat stomach explant = details: cited from earlier work

Asn-Trp-Thr-Pro-Gln-Ala-Met-Leu-Tyr-Leu-Lys-Gly-Ala-Gln-NH2 [Spexin]
weight loss (obese (DIO) mice): produces weight loss
10% ethanol:water ratio, % of baseline (male C57BL/6J mice; 25 μg/kg i.p. daily, 1st day of Spexin administration, baseline ratio 2.0:1.0 = 100%): 80.7%
10% ethanol:water ratio, % of baseline (male C57BL/6J mice; 25 μg/kg i.p. daily, 2nd day of Spexin administration): 42.4%
10% ethanol:water ratio, % of baseline (male C57BL/6J mice; 25 μg/kg i.p. daily, 3rd day of Spexin administration): 42.4%
10% ethanol:water ratio, % of baseline (male C57BL/6J mice; 1st day post-Spexin): 100%
10% ethanol:water ratio, % of baseline (male C57BL/6J mice; 2nd day post-Spexin): 136%
ethanol intake (male C57BL/6J mice; daily spexin injections, free choice): rapidly & significantly reduce ethanol intake
ratio of 10% ethanol/water consumption (C57BL/6J mice; 25 micrograms/kg/day IP in 1xPBS, Days 33-37 and 40-41, cages 1, 4 and 10): dropped in all three cages
ratio of 10% ethanol/water consumption (C57BL/6J mice; 25 micrograms/kg/day IP, cages 4 and 10): below 1
contractile effects (rat stomach explant): demonstrates contractile effects
